Experiments:
[1] = tested on: human erythrocytes (RBC); experiment: 51Cr release from RBC incubated with peptide ester alone; type: cell-based; conditions: for ^51 Cr Release from RBC: Nil 410 + 12
Protocol: The following experiments were carried out to determine whether DPPI could generate a lytic product from Leu-Leu-OMe. In the experiment detailed in FIG. 12, ^51 Cr-labeled human erythrocytes (RBC) were incubated with varying concentrations of Leu-Leu-OMe alone or in the presence of purified bovine DPPI.

[2] = tested on: B6 spleen cells (NK, allospecific cytotoxic T cells); conditions: 250 micro-M (ref. 12); cited from earlier work

COC(=O)[C@H](CC(C)C)NC(=O)[C@@H](N)CC(C)C [Leu-Leu-OMe, L-leucyl-L-leucine methyl ester]
^51 Cr Release from RBC ([1]; 100 micro-M): 400 + 27
^51 Cr Release from RBC ([1]; 500 micro-M): 482 + 57
^51 Cr Release from RBC ([1]; 2500 micro-M): 482 + 121
damage to RBC by compound alone, in words ([1]; no DPPI): results in no damage to RBC
allocytotoxicity [2]: near total ablation of allocytotoxicity
